The values that follow come from patent US7763648B2, “Oxa-steroids derivatives as selective progesterone receptor modulators” (Janssen Pharmaceutica N.V., priority 2006, dated 2010).

Assay [1] concerns A549 Human lung carcinoma cells. Briefly: A549 Human Lung Cell Assay (transfected, dexamethasone challenge, Luc-assay). It counts as cell-based. Particulars: Dexamathasone challenge, 24 h. As for the experimental part:
A549 Human Lung Cell Assay
A549 Human lung carcinoma cells were grown in F-12K Nutrient Mixture containing 10% (v/v) fetal bovine serum (FBS; Invitrogen), 2 mM glutamine and 0.15% sodium dicarbonate (Invitrogen).
A549 cells were split 1 to 3 in 175 cm tissue culture flask. The cells were incubated at 37° C. in CO2 incubator until the cells were 95% confluent (typically 24-30 hours).
The following solutions were prepared in sterile tubes: (a) Solution A: 1.5 μg/ml of DNA in 8.5 ml OPTI-MEM I Reduced Serum Medium. (GIBCO cat# 31985) and (b) Solution B: 6 μl/ml of DMRIE-C Reagent into […] OPTI-MEM I. The two solutions were combined and mixed gently, then incubated at room temperature for 40 minutes.
The A549 cells prepared above were washed with […] of OPTI-MEM I. The medium was removed and 17 ml of the lipid-DNA complex solution was overlayed onto cells. The cells ere then incubated for 16 h at 37° C. in CO2 incubator. The DNA-containing medium was removed and 30 ml of growth medium was added. (5% Charcoal treated FBS) After 5-6 h, the cells were seeded in a 96 well plate and the cells incubated overnight at 37° C. in CO2 incubator.
To each well was then added 5 μl of test compounds and the cells incubated at 37° C. for 10 min. 5 μL of Dexamathasone (CAS [50-02-2]), was then added to each well for challenger and the cells incubated at 37° C. in CO2 incubator for 24 h. 100 μl of Luc-assay buffer was then added into each cell well and the cells incubated for 30 min at room temperature. A 150 μL sample from each well was then transferred into a DYNEX Microlitel plate and read on Top-counter.

The test system of assay [2] is T47D human breast cancer cells. The assay is described as follows: T47D Human Breast Cancer Cells Assay (alkaline phosphatase). It counts as cell-based. Particulars: 24 h with test compound, luminescence. As for the experimental part:
T47D Human Breast Cancer Cells Assay
T47D human breast cancer cells were grown in RPMI medium without phenol red (Invitrogen) containing 10% (v/v) heat-inactivated fetal bovine serum (FBS; Hyclone), 1% (v/v) penicillin-streptomycin (Invitrogen), 1% (w/v) glutamine (Invitrogen), and […] insulin (Sigma). Incubation conditions were 37° C. in a humidified 5% (v/v) carbon dioxide environment.
The cells were plated in 96-well tissue culture plates at 10,000 cells per well in assay medium [RPMI medium without phenol red (Invitrogen) containing 5% (v/v) charcoal-treated FBS (Hyclone) and 1% (v/v) penicillin-streptomycin (Invitrogen)]. Two days later, the medium was decanted and test compound or control were added at a final concentration of 0.1% (v/v) dimethyl sulfoxide in fresh assay medium. Twenty-four hours later, an alkaline phosphatase assay was performed using a SEAP kit (BD Biosciences Clontech, Palo Alto, Calif.). Briefly, the medium was decanted and the cells were fixed for 30 minutes at room temperature with 5% (v/v) formalin (Sigma). The cells were washed once with room temperature Hank's buffered saline solution (Invitrogen). Equal volumes (0.05 mL) of 1× Dilution Buffer, Assay Buffer and 1:20 substrate/enhancer mixture were then added. After 1 hour incubation at room temperature in the dark, the lysate was transferred to a white 96-well plate (Dynex) and luminescence was read using a LuminoSkan Ascent (Thermo Electron, Woburn, Mass.).

In the case of `CN(C)c1ccc([C@H]2C[C@@]3(C)[C@@H](CC[C@@]3(O)C#Cc3ccc(C#N)cc3)[C@@H]3OCC4=CC(=O)CCC4=C32)cc1` [Compound 14, 4-[11-(4-Dimethylamino-phenyl)-17-hydroxy-13-methyl-3-oxo-1,2,3,6,8,11,12,13,14,15,16,17-dodecahydro-7-oxa-cyclopenta[a]phenanthren-17-ylethynyl]-benzonitrile], the IC50 came to 41.3 nM in assay [1] and 3.67 nM in assay [2].
For `COc1ccc(C#C[C@]2(O)CC[C@H]3[C@@H]4OCC5=CC(=O)CCC5=C4[C@@H](c4ccc(N(C)C)cc4)C[C@@]32C)cc1` [Compound 15, 11-(4-Dimethylamino-phenyl)-17-hydroxy-17-(4-methoxy-phenylethynyl)-13-methyl-1,2,8,11,12,13,14,15,16,17-decahydro-6H-7-oxa-cyclopenta[a]phenanthren-3-one] the same measures were 80.3 nM and 3.2 nM.
Take `CN(C)c1ccc([C@H]2C[C@@]3(C)[C@@H](CC[C@@]3(O)C#Cc3ccccc3F)[C@@H]3OCC4=CC(=O)CCC4=C32)cc1` [Compound 16, 11-(4-Dimethylamino-phenyl)-17-(2-fluoro-phenylethynyl)-17-hydroxy-13-methyl-1,2,8,11,12,13,14,15,16,17-decahydro-6H-7-oxa-cyclopenta[a]phenanthren-3-one]: the values for the concentration for half-maximal inhibition (IC50) in assay [1] and in assay [2] were 65.1 nM and 1.43 nM, respectively.
For `CN(C)c1ccc([C@H]2C[C@@]3(C)[C@@H](CC[C@@]3(O)C#Cc3cccc(F)c3)[C@@H]3OCC4=CC(=O)CCC4=C32)cc1` [Compound 17, 11-(4-Dimethylamino-phenyl)-17-(3-fluoro-phenylethynyl)-17-hydroxy-13-methyl-1,2,8,11,12,13,14,15,16,17-decahydro-6H-7-oxa-cyclopenta[a]phenanthren-3-one] the same measures were 56.6 nM and 1.02 nM.
Turning to `CN(C)c1ccc([C@H]2C[C@@]3(C)[C@@H](CC[C@@]3(O)C#Cc3cc(F)cc(F)c3)[C@@H]3OCC4=CC(=O)CCC4=C32)cc1` [Compound 18, 17-(3,5-Difluoro-phenylethynyl)-11-(4-dimethylamino-phenyl)-17-hydroxy-13-methyl-1,2,8,11,12,13,14,15,16,17-decahydro-6H-7-oxa-cyclopenta[a]phenanthren-3-one], the figures for the IC50 in assay [1] and in assay [2] were 34.4 nM and 0.905 nM, respectively.
`CN(C)c1ccc([C@H]2C[C@@]3(C)[C@@H](CC[C@@]3(O)C#Cc3ccccc3Cl)[C@@H]3OCC4=CC(=O)CCC4=C32)cc1` [Compound 19, 17-(2-Chloro-phenylethynyl)-11-(4-dimethylamino-phenyl)-17-hydroxy-13-methyl-1,2,8,11,12,13,14,15,16,17-decahydro-6H-7-oxa-cyclopenta[a]phenanthren-3-one]: the IC50 in assay [1] turned out to be 64.8 nM; in assay [2], 1.08 nM.
For `CN(C)c1ccc([C@H]2C[C@@]3(C)[C@@H](CC[C@@]3(O)C#Cc3cccc(Cl)c3)[C@@H]3OCC4=CC(=O)CCC4=C32)cc1` [Compound 20, 17-(3-Chloro-phenylethynyl)-11-(4-dimethylamino-phenyl)-17-hydroxy-13-methyl-1,2,8,11,12,13,14,15,16,17-decahydro-6H-7-oxa-cyclopenta[a]phenanthren-3-one] the same measures were 48.9 nM and 12.5 nM.
Regarding `CN(C)c1ccc([C@H]2C[C@@]3(C)[C@@H](CC[C@@]3(O)C#Cc3ccccc3Br)[C@@H]3OCC4=CC(=O)CCC4=C32)cc1` [Compound 21, 17-(2-Bromo-phenylethynyl)-11-(4-dimethylamino-phenyl)-17-hydroxy-13-methyl-1,2,8,11,12,13,14,15,16,17-decahydro-6H-7-oxa-cyclopenta[a]phenanthren-3-one], the IC50 was 62.7 nM in assay [1] and 8.6 nM in assay [2].

Usually IC50 stands for the concentration that gives 50% inhibition. A higher IC50 goes with a need for much substance.
